Data set [1] is described as follows: PC viability by MTT assay. The conditions noted are these: human.
The test system of data set [2] is human pericytes (PC). The data set can be described thus: PC viability by MTT assay. On the technique in general: Tetrazolium assays rely on reduction of a dye to a coloured formazan, in cell work by metabolically active cells.
Data set [3] has as its system TYKRIL. Put plainly: TYKRIL expression in human pericytes by qRT-PCR. The conditions noted are these: for TYKRIL expression levels in PC: LNA GapmeR 50 nmol/l, 48 h after transfection, vs scrambled control. The data set is classed as cell-based. The protocol:
(§1) Cells were grown to 60-80% confluency and were transfected for 4 hours in Optimem Medium using Lipfectamine (both from Life technologies, Carlsbad, Calif., USA) with 50 nmol/l LNA GapmeR (Exiqon, Vedbaek, Denmarkt) according to the manufacturer's instructions. Controls were transfected with scrambled LNA GapmeR control. Four hours after LNA Gapmer Transfection, Optimem Medium was exchanged with normal cell culture medium. All experimental manipulations were carried out 48 hours after transfection.
(§2) Total RNA from PC was isolated using RNeasy Mini Kits (Qiagen, Hilden, Germany) as recommended by the manufacturer including a DNA digestion step. Nuclear and cytosolic fractions were prepared as documented elsewhere 34. 500-1000 ng RNA was reversely transcribed with random hexamer primers (ThermoScientific, Waltham, USA) by MulV reverse transcriptase (Lifetechnologies) in 40 μl reaction volume. Fast SYBR green or SYBR green (Applied Biosystems, Forster City, USA) and cDNA were used for qRT-PCR. A Viia7 or StepOnePlus from Applied Biosystems was used. CT values were normalized against ribosomal RPLP0. Relative gene expression levels were determined by the formula: 2-deltaCT; deltaCT=CTtarget−CTcontrol.
For orientation: In qPCR the cycle at which signal appears reflects the starting amount.

Data set [4] has as its system PDGFRβ. Put plainly: PDGFRβ expression in human pericytes by qPCR and immunoblotting. The data set is classed as cell-based. The note with it: for PDGFRβ mRNA (qPCR) / PDGFRβ protein levels (immunoblotting): upon TYKRIL silencing by LNA GapmeRs. The protocol:
as §1, §2
Standard immunofluorescent staining procedures were carried out as described before 35-37. In brief, cells were washed with PBS, fixed in ice cold acetone for about 5 minutes. After washing cells were blocked for 2 hours at room temperature with 5% donkey serum (Dianova, Hambur, Germany), 0.3% Triton X-100 in PBS. Primary antibodies were incubated overnight in PBS containing 2% BSA, 0.1% Triton X-100. Secondary antibodies and Hoechst (Lifetechnologies, 1/1000) were incubated in 2% BSA, 0.1% azide for another 2 hours. For SDS Page protein isolation cells were washed once with ice-cold PBS, snap frozen in liquid nitrogen and RIPA-buffer (Thermo Scientific, Rockford, USA) supplemented with protease inhibitor (Roche Diagnostics) was applied. Cells were then scraped off with an ice cold rubber policeman and incubated for 45 minutes on ice under agitation. Subsequently probes were centrifuged for 10 minutes at 5000 RPM at 4° C. The supernatant was transferred into ice cold vials and protein concentration was determined by performing a Bradford assay with RotiQuant (Carl Roth, Karlsruhe, Germany) according to the manufacturer's instructions. Protein samples were mixed with an equal volume of 2× Laemmli buffer (Sigma Aldrich). Gels (Mini-Protean TGX, BioRad) were loaded with 20-30 μg protein per lane. SDS page was performed for 1 hour at 100V in […] (BioRad). Western Blotting was performed using a Pierce G2 Fast Blotter according to the manufacturer's instructions (ThermoScientific).

Data set [5] relates to human pericytes. Put plainly: RNA Seq upon TYKRIL knockdown in pericytes. It is filed as cell-based. The conditions noted are these: upon TYKRIL knockdown with LNA GapmeRs. On the procedure: RNA deep sequencing was performed by analyzing ribosomal depleted total RNA from human Pericytes. RNA was isolated using a RNeasy Mini Kit (Qiagen) according to the manufacturer's instructions including DNA digestion. Subsequently RNA was fragmented and primed for cDNA synthesis. Libraries were created using a TruSeq RNA Ribo-Zero Globin kit (from Illumina) as recommended by the manufacturer. A Illumina HiSeq 2000 flowcell was used for sequencing. lncRNA annotation was done based on the NONCODE database (noncode.org).

For data set [6], the system named is mTYKRIL. Put plainly: Murine TYKRIL knockdown in vivo, mTYKRIL in organs. The arrangement: species or system mouse. The conditions noted are these: mice, 20 mg/kg intraperitoneally, single shot, 48 h. On the procedure:
(§3) HPLC purified. LNA GapmeRs were injected intraperitoneally at a dosage of 20 mg/kg bodyweight. 48 hours after injection, mice were sacrificed by isoflurane overdose and cardially perfused with PBS at a steady flow of 9 ml/min. Subsequently organs were removed and snap forzen for RNA and protein isolation.

The subject of data set [7] is PDGFRβ. Put plainly: Murine TYKRIL knockdown in vivo, PDGFRβ in organs. The conditions noted are these: mice, 20 mg/kg intraperitoneally, single shot, 48 h. The arrangement: species or system mouse. The protocol: as §3
Setting [8] is: p53 gain of function by doxorubicin treatment.

“Also recorded” adds a separate entry of the source.

In the case of `Cc1ccc(NC(=O)c2ccc(CN3CCN(C)CC3)cc2)cc1Nc1nccc(-c2cccnc2)n1` [Imatinib], the cytotoxicity at 24 h, 1 μM in data set [1] (human pericytes (PC)) was about 20%. Further, the cytotoxicity in data set [1] (human pericytes (PC) with TYKRIL silenced by LNA GapmeR) is about 45%. The “PC viability (MTT), in words” value in data set [2] (imatinib 1 μM, 24 h, compared with solvent PBS) was “significantly decreased PC viability”; in data set [2] (imatinib upon TYKRIL silencing, compared with scramble control transfected PC), “significantly more reduced”.

For the compound `COc1cccc2c1C(=O)c1c(O)c3c(c(O)c1C2=O)C[C@@](O)(C(=O)CO)C[C@@H]3O[C@H]1C[C@H](N)[C@H](O)[C@H](C)O1` [doxorubicin, reference compound], the TYKRIL expression result in data set [3] (setting [8]) was “loss of TYKRIL; also recorded: downregulation”. Also, in data set [4] (setting [8]), the “PDGFRβ on RNA level” value was “downregulation of PDGFRβ; also recorded: significant decline” and the “PDGFRβ on protein level” value is “downregulation of PDGFRβ; also recorded: significant decline”.

Regarding “LNA#1: LNA GapmeR against human TYKRIL, 5′-3′: AGAGGTGATTAAGGT (LNA gapmer: LNA flanks around DNA gap, pattern and linkages not given here)”, the “TYKRIL expression levels in PC” value in data set [3] is listed as “significant reduction of TYKRIL”. In data set [4], the “PDGFRβ mRNA (qPCR)” value was “loss of PDGFRβ” and the “PDGFRβ protein levels (immunoblotting)” value is “loss of PDGFRβ”. In addition, in data set [5], the “Pericyte differentiation state by RNA Seq” value is “de-differentiation of Pericytes”.

For “LNA#3: LNA GapmeR against human TYKRIL, 5′-3′: AGTGAAGGACAGAGGC (LNA gapmer: LNA flanks around DNA gap, pattern and linkages not given here)”, the “TYKRIL expression levels in PC” value in data set [3] is reported as “significant reduction of TYKRIL”. Also, in data set [4], the “PDGFRβ mRNA (qPCR)” value is listed as “loss of PDGFRβ” and the “PDGFRβ protein levels (immunoblotting)” value is recorded as “loss of PDGFRβ”. In data set [5], the “Pericyte differentiation state by RNA Seq” value was “de-differentiation of Pericytes”.

“mLNA#4: murine TYKRIL LNA Gapmer, SEQ ID NO: 12, GTCTGCACTTAATTAA (LNA gapmer, pattern and linkages not given here; listed as Mus musculus)”: the “mTYKRIL (qPCR) in heart” value in data set [6] is “downregulation”. Also, in data set [6] (20 mg/kg), the mTYKRIL in kidneys entry is listed as “decreased; also recorded: downregulation”, the mTYKRIL in liver entry is listed as “decreased; also recorded: downregulation”, the mTYKRIL in lungs result is listed as “decreased; also recorded: downregulation” and the mTYKRIL in spleen result was “decreased; also recorded: downregulation”. Also, in data set [7], the “PDGFRβ (qPCR) in heart” value was “downregulation” and the “PDGFRβ protein level in heart” value is on record as “PDGFRβ loss”. For the same compound, in data set [7] (20 mg/kg), the PDGFRβ in kidneys entry is recorded as “decreased; also recorded: downregulation”, the PDGFRβ in liver result was “decreased; also recorded: downregulation”, the PDGFRβ in lungs entry was “decreased; also recorded: downregulation” and the PDGFRβ in spleen result is “decreased; also recorded: downregulation”.

The values above are taken from patent publication US20180044672A1, “Pericyte Long Non-Coding RNAs” (Johann Wolfgang Goethe-Universität Frankfurt am Main, priority 2015, published 2018).
